In patent publication US20250268903A1, “RXFP1 AGONISTS” (BRISTOL-MYERS SQUIBB COMPANY, priority 2021, published 2025) one finds EC50 data, which are given here for 19 compounds.

This experiment addresses T1, human RXFP1 (Homo sapiens, UniProt Q9HBX9).
T1 construct: expressed in transfected cells
T1 sequence (Q9HBX9 1-757): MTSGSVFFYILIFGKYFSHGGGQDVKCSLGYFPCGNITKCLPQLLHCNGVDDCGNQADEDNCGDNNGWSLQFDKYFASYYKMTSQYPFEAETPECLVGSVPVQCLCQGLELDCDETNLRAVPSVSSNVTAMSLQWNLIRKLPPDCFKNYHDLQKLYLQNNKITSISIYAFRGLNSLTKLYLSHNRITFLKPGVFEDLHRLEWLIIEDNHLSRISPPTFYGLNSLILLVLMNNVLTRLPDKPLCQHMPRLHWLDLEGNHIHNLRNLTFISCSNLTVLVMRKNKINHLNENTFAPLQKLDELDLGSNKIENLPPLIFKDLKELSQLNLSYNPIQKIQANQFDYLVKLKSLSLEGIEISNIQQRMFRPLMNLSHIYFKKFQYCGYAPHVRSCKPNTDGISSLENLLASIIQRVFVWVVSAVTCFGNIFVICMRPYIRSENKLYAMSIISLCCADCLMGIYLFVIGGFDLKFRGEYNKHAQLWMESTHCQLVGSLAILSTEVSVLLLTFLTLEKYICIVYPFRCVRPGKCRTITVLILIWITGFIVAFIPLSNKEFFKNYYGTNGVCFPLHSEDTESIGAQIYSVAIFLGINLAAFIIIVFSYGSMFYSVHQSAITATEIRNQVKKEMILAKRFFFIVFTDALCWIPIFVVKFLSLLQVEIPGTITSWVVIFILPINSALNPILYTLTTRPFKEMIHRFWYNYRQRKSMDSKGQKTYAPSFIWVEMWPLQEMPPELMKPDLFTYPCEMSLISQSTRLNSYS
Nature of the experiment: hRXFP1 HEK293 cAMP assay (HTRF). The following applies: HEK293 cells stably expressing human RXFP1, 30 min at room temperature. The class given is cell-based. The procedure, abridged:
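hRXFP1-HEK293 stable line; HBSS + Ca/Mg, 20 mM HEPES, 0.05% BSA, 0.5 mM IBMX; cpd 0.010 nM–50 μM, 2% DMSO; 30 min RT; lysis, HTRF cAMP detection; 4-PL fit.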
Turning to `COc1ccc(C23CCC2CC(CO)C3)cc1C(=O)N[C@H]1[C@@H](C(=O)Nc2ccc(F)c(C(F)(F)F)c2)[C@H]2CC[C@@H]1/C2=C\C1CC1` (stereo partly drawn) [Example 353, (1R,2S,3R,4R,7Z)-7-(cyclopropyl-methylidene)-N-[4-fluoro-3-(trifluoromethyl)phenyl]-3-{5-[3-(hydroxymethyl)bicyclo[3.2.0]heptan-1-yl]-2-methoxybenzamido} bicyclo[2.2.1]heptane-2-carboxamide], it took 181 nM to reach a half-maximal effect (EC50).
For `COc1ccc(C#CCCOC(=O)NC2CCC2)cc1C(=O)N[C@@H]1C2CCC(/C2=C/C(F)(F)F)[C@@H]1C(=O)Nc1ccc(F)c(C(F)(F)F)c1` (stereo partly drawn) [Example 79, 4-(3-{[(2R,3S,7Z)-3-{[4-fluoro-3-(trifluoromethyl)phe-nyl]carbamoyl}-7-(2,2,2-trifluoroethylidene)bi-cyclo[2.2.1]heptan-2-yl]carbamoyl}-4-methoxyphenyl)but-3-yn-1-yl N-cyclobutylcarbamate] the value was 104 nM; for `COc1c(F)cc(C(=O)N2CC3(C2)CC(O)(C(F)(F)F)C3)cc1C(=O)N[C@H]1[C@@H](C(=O)N[C@H](C)C2(C)CC2)[C@H]2CC[C@@H]1/C2=C\C1CC1` [Example 372, (1R,2S,3R,4R,7Z)-7-(cyclopropyl-methylidene)-3-{3-fluoro-5-[6-hydroxy-6-(trifluoromethyl)-2-azaspiro[3.3]heptane-2-carbonyl]-2-methoxybenzamido}-N-[(1R)-1-(1-methylcyclopropyl)ethyl]bicyclo[2.2.1] heptane-2-carboxamide], 5.9 nM; for `COc1ccc(/C=C/C(=O)N[C@H]2C[C@H](O)C2)cc1C(=O)NC1C2CCC(/C2=C/C(F)(F)F)[C@@H]1C(=O)Nc1ccc(F)c(C(F)(F)F)c1` (stereo partly drawn) [Example 131, (2S,3R,7Z)-N-[4-fluoro-3-(trifluoromethyl)phe-nyl]-3-{2-methoxy-5-[(1E)-2-{[(1r,3r)-3-hydroxycyclobutyl]car-bamoyl}eth-1-en-1-yl]benzamido}-7-(2,2,2-trifluoroethylidene)bi-cyclo[2.2.1]heptane-2-carboxamide], 264 nM.
For `COc1ccc(CC2CCOCC2)cc1C(=O)NC1C2CCC(/C2=C/C(F)(F)F)[C@@H]1C(=O)Nc1ccc(F)c(C(F)(F)F)c1` (stereo partly shown) [Example 178, (7Z)-N-[4-fluoro-3-(trifluoromethyl)phe-nyl]-3-{2-methoxy-5-[(oxan-4-yl)methyl]benzamido}-7-(2,2,2-trifluoroethylidene)bi-cyclo[2.2.1]heptane-2-carboxamide] the value was 355 nM; for `COc1ccc(COC2(C(=O)O)CC2)cc1C(=O)N[C@@H]1C2CCC(/C2=C/C2CC2)[C@@H]1C(=O)Nc1ccc(F)c(C(F)(F)F)c1` (stereo partly drawn) [Example 18, 1-[(3-{[(2R,3S,7Z)-7-(cyclopropylmethyli-dene)-3-{[4-fluoro-3-(trifluoromethyl)phe-nyl]carbamoyl}bicy-clo[2.2.1]heptan-2-yl]carbamoyl}-4-methoxyphenyl)meth-oxy]cyclopropane-1-carboxylic acid], 124 nM; for `COc1ccc(CCCn2cc(-c3ccccc3)nn2)cc1C(=O)N[C@@H]1C2CCC(/C2=C/C(F)(F)F)[C@@H]1C(=O)Nc1ccc(F)c(C(F)(F)F)c1` (stereo partly shown) [Example 123], 1270 nM.
For `COc1ccc(CCCNC[C@@H](O)C(F)(F)F)cc1C(=O)N[C@@H]1C2CCC(/C2=C/C(F)(F)F)[C@@H]1C(=O)Nc1ccc(F)c(C(F)(F)F)c1` (stereo partly drawn) [Example 119, (2S,3R,7Z)-N-[4-fluoro-3-(trifluoromethyl)phe-nyl]-3-[2-methoxy-5-(3-{[(2R)-3,3,3-trifluoro-2-hydroxypropyl]amino}propyl)benzamido]-7-(2,2,2-trifluoroethylidene)bi-cyclo[2.2.1]heptane-2-carboxamide] the value was 1800 nM; for `COc1ccc(COCC2CC3(C2)OCCO3)cc1C(=O)N[C@H]1[C@@H](C(=O)Nc2ccc(F)c(C(F)(F)F)c2)[C@H]2CC[C@@H]1/C2=C\C1CC1` [Example 286], 121 nM.
`COc1ccc(CCCNC(=O)[C@@H](C)O)cc1C(=O)N[C@H]1[C@@H](C(=O)Nc2ccc(F)c(C(F)(F)F)c2)[C@H]2CC[C@@H]1/C2=C\C(F)(F)F` [Example 111, (1R,2S,3R,4R,Z)—N-(4-fluoro-3-(trifluoromethyl)phenyl)-3-(5-(3-((R)-2-hydroxypropanamido)propyl)-2-methoxybenzamido)-7-(2,2,2-trifluoroethylidene) bicyclo[2.2.1]heptane-2-carboxamide] had a 50% effective concentration (EC50) of 106 nM.
For `COc1ccc(CCCCCO)cc1C(=O)N[C@@H]1C2CCC(/C2=C/C(F)(F)F)[C@@H]1C(=O)Nc1ccc(F)c(C(F)(F)F)c1` (stereo partly drawn) [Example 97, (2S,3R,7Z)-N-[4-fluoro-3-(trifluoromethyl)phe-nyl]-3-[5-(5-hydroxypentyl)-2-methoxybenzamido]-7-(2,2,2-trifluoroethylidene)bi-cyclo[2.2.1]heptane-2-carboxamide] the value was 82 nM; for `COc1ccc(C(=O)N(C)C(C)(C)C)cc1C(=O)N[C@H]1[C@@H](C(=O)Nc2ccc(F)c(C(F)(F)F)c2)[C@H]2CC[C@@H]1/C2=C\C1CC1` [Example 241, N1-tert-butyl-N3-[(1R,2R,3S,4R,7Z)-7-(cyclopropyl-methylidene)-3-{[4-fluoro-3-(trifluoromethyl)phenyl]carbamoyl}bicyclo[2.2.1]heptan-2-yl]-4-methoxy-N1-methylbenzene-1,3-dicarboxamide], 69.8 nM; for `COc1ccc(S(=O)(=O)N2CCN[C@H](CO)C2)cc1C(=O)N[C@H]1[C@@H](C(=O)Nc2ccc(F)c(C(F)(F)F)c2)[C@H]2CC[C@@H]1/C2=C\C(F)(F)F` [Example 212, (1R,2S,3R,4R,7Z)-N-[4-fluoro-3-(trifluoromethyl)phenyl]-3-(5-{[(3S)-3-(hydroxymethyl)piperazin-1-yl]sulfonyl}-2-methoxybenzamido)-7-(2,2,2-trifluoroethylidene) bicyclo[2.2.1] heptane-2-carboxamide], 589 nM.
For `COc1ccc(/C=C/C(=O)N2CC[C@@H](O)C2)cc1C(=O)N[C@@H]1C2CCC(/C2=C/C(F)(F)F)[C@@H]1C(=O)Nc1ccc(F)c(C(F)(F)F)c1` (stereo partly drawn) [Example 129, (2S,3R,7Z)-N-[4-fluoro-3-(trifluoromethyl)phe-nyl]-3-{5-[(1E)-3-[(3R)-3-hydroxypyrrolidin-1-yl]-3-oxoprop-1-en-1-yl]-2-methoxybenzamido}-7-(2,2,2-trifluoroethylidene)bi-cyclo[2.2.1]heptane-2-carboxamide] the value was 111 nM.
Then `COc1ccc(C#C[C@@H](C)O)cc1C(=O)N[C@@H]1C2CCC(/C2=C/C(F)(F)F)[C@@H]1C(=O)Nc1ccc(F)c(C(F)(F)F)c1` (stereo partly drawn) [Example 72, (2S,3R,7Z)-N-[4-fluoro-3-(trifluoromethyl)phe-nyl]-3-{5-[(3R)-3-hydroxybut-1-yn-1-yl]-2-methoxybenzamido}-7-(2,2,2-trifluoroethylidene)bi-cyclo[2.2.1]heptane-2-carboxamide], with 134 nM; and `COc1ccc(CCCC(F)(F)F)cc1C(=O)NC1C2CCC(/C2=C/C(F)(F)F)[C@@H]1C(=O)Nc1ccc(F)c(C(F)(F)F)c1` (stereo partly shown) [Example 185, (7Z)-N-[4-fluoro-3-(trifluoromethyl)phe-nyl]-3-[2-methoxy-5-(4,4,4-trifluorobutyl)benza-mido]-7-(2,2,2-trifluoroethylidene)bi-cyclo[2.2.1]heptane-2-carboxamide], with 603 nM.
Turning to `COc1ccc(CCC(C)(C)O)cc1C(=O)N[C@@H]1C2CCC(/C2=C/C(F)(F)F)[C@@H]1C(=O)Nc1ccc(F)c(C(F)(F)F)c1` (stereo partly shown) [Example 82], the EC50 stood at 125 nM.
The compound `COc1ccc(/C=C/C(=O)N2CCC(O)CC2)cc1C(=O)N[C@@H]1C2CCC(/C2=C/C(F)(F)F)[C@@H]1C(=O)Nc1ccc(F)c(C(F)(F)F)c1` (stereo partly drawn) [Example 125, (2S,3R,7Z)-N-[4-fluoro-3-(trifluoromethyl)phe-nyl]-3-{5-[(1E)-3-(4-hydroxypiperidin-1-yl)-3-oxoprop-1-en-1-yl]-2-methoxybenzamido}-7-(2,2,2-trifluoroethylidene)bi-cyclo[2.2.1]heptane-2-carboxamide] came in with a concentration for a half-maximal effect (EC50) of 13 nM.
Then `COc1cc(F)c(O[C@H]2CC[C@](C)(C(=O)O)CC2)cc1C(=O)N[C@@H]1C2CCC(/C2=C/C2CC2)[C@@H]1C(=O)Nc1ccc(F)c(C(F)(F)F)c1` (stereo partly drawn) [Example 375, (1R,4r)-4-(5-(((1R,2R,3S,4R,Z)-7-(cyclopropyl-methylene)-3-((4-fluoro-3-(trifluoromethyl)phenyl)carbamoyl)bicyclo[2.2.1]heptan-2-yl)carbamoyl)-2-fluoro-4-methoxyphenoxy)-1-methylcyclohexane-1-carboxylic acid], with 1.3 nM.
